# Test results: PubChem BioAssay AID256 (DTP/NCI, 2004)
# “And” between values parts separate entries of the source, which are not always exact repeats. Identical values can stand only once. Toxic doses and inconclusive results are not listed.
# Test system: CD2F1 mice, L1210 leukemia ip, survival T/C
# Assay: NCI In Vivo Anticancer Drug Screen. Data for tumor model L1210 Leukemia (intraperitoneal) in CD2F1 (CDF1) mice
# Conditions: higher = longer survival
# In short: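 Antitumor effect is scored in animals hosting a serially transplanted tumor. Values compare compound-dosed animals against vehicle-only controls as a simple quotient.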
# [1] = endpoint: mean survival time, dose: 100.0 mg/kg/injection, schedule: Q01DX009 (ip), vehicle: saline with Tween-80
# [2] = endpoint: mean survival time, dose: 200.0 mg/kg/injection, schedule: Q01DX009 (ip), vehicle: saline with Tween-80
# [3] = endpoint: mean survival time, dose: 400.0 mg/kg/injection, schedule: Q01DX009 (ip), vehicle: saline with Tween-80
# [4] = endpoint: mean survival time, dose: 100.0 mg/kg/injection, schedule: Q04DX003 (ip), vehicle: saline with Tween-80
# [5] = endpoint: mean survival time, dose: 200.0 mg/kg/injection, schedule: Q04DX003 (ip), vehicle: saline with Tween-80
# [6] = endpoint: mean survival time, dose: 400.0 mg/kg/injection, schedule: Q04DX003 (ip), vehicle: saline with Tween-80
smiles,measurement,setting,value
[Cl][Pt][Cl].c1ccc([SeH]c2ccccc2)cc1.c1ccc([SeH]c2ccccc2)cc1,T/C,"endpoint: mean survival time, dose: 25.0 mg/kg/injection, schedule: Q04DX003 (ip), vehicle: other",97 % of control
same,T/C,"endpoint: mean survival time, dose: 50.0 mg/kg/injection, schedule: Q04DX003 (ip), vehicle: other",102 % of control
same,T/C,"endpoint: mean survival time, dose: 100.0 mg/kg/injection, schedule: Q04DX003 (ip), vehicle: other",98 % of control
same,T/C,"endpoint: mean survival time, dose: 200.0 mg/kg/injection, schedule: Q04DX003 (ip), vehicle: other",101 % of control
same,T/C,"endpoint: mean survival time, dose: 400.0 mg/kg/injection, schedule: Q04DX003 (ip), vehicle: other",100 % of control
O[C@H](CN1CC1)[C@@H](O)CN1CC1,T/C,"endpoint: mean survival time, dose: 0.25 mg/kg/injection, schedule: Q01DX007 (ip), vehicle: saline",150 % of control
same,T/C,"endpoint: mean survival time, dose: 0.25 mg/kg/injection, schedule: Q01DX009 (ip), vehicle: saline",170 % of control and 177 % of control and 178 % of control
same,T/C,"endpoint: mean survival time, dose: 0.5 mg/kg/injection, schedule: Q01DX007 (ip), vehicle: saline",192 % of control
same,T/C,"endpoint: mean survival time, dose: 0.5 mg/kg/injection, schedule: Q01DX009 (ip), vehicle: saline",165 % of control and 197 % of control and 205 % of control
same,T/C,"endpoint: mean survival time, dose: 0.5 mg/kg/injection, schedule: Q03DX003 (ip), vehicle: saline",166 % of control
same,T/C,"endpoint: mean survival time, dose: 0.5 mg/kg/injection, schedule: Q04DX003 (ip), vehicle: saline",164 % of control
same,T/C,"endpoint: mean survival time, dose: 1.0 mg/kg/injection, schedule: Q01DX007 (ip), vehicle: saline",94 % of control
same,T/C,"endpoint: mean survival time, dose: 1.0 mg/kg/injection, schedule: Q01DX009 (ip), vehicle: saline",116 % of control and 95 % of control
same,T/C,"endpoint: mean survival time, dose: 1.0 mg/kg/injection, schedule: Q03DX003 (ip), vehicle: saline",202 % of control
same,T/C,"endpoint: mean survival time, dose: 1.0 mg/kg/injection, schedule: Q04DX003 (ip), vehicle: saline",184 % of control
CCC1(O)CC2CN(CCc3c([nH]c4ccccc34)C(C(=O)OC)(c3cc4c(cc3OC)N(C)C3C(O)(C(=O)NCCSSCCNC(=O)C5(O)C(O)C6(CC)C=CCN7CCC8(c9cc(C%10(C(=O)OC)CC%11CN(CCc%12c%10[nH]c%10ccccc%12%10)CC(O)(CC)C%11)c(OC)cc9N(C)C58)C76)C(O)C5(CC)C=CCN6CCC43C65)C2)C1 (configuration not stated),T/C,"endpoint: median survival time, dose: 1.08 mg/kg/injection, schedule: Q01DX009 (ip), vehicle: suspension in saline",111 % of control
FC(F)(F)c1ccc2c(c1)N(CCCN(CCCl)CCCl)c1ccccc1S2,T/C,"endpoint: mean survival time, dose: 18.0 mg/kg/injection, schedule: Q01DX001 (ip), vehicle: saline",100 % of control
same,T/C,"endpoint: mean survival time, dose: 28.0 mg/kg/injection, schedule: Q01DX001 (ip), vehicle: saline",111 % of control
O=Cc1ccccc1O,T/C,"endpoint: mean survival time, dose: 100.0 mg/kg/injection, schedule: Q04DX002 (ip), vehicle: saline",93 % of control
OCC1OC(n2cnc3cc4ccccc4cc32)C(O)C1O (configuration not stated),T/C,"endpoint: median survival time, dose: 13.25 mg/kg/injection, schedule: Q01DX005 (ip), vehicle: saline with Tween-80",100 % of control
same,T/C,"endpoint: median survival time, dose: 26.5 mg/kg/injection, schedule: Q01DX005 (ip), vehicle: saline with Tween-80",98 % of control
same,T/C,"endpoint: median survival time, dose: 53.0 mg/kg/injection, schedule: Q01DX005 (ip), vehicle: saline with Tween-80",88 % of control
same,T/C,"endpoint: median survival time, dose: 106.0 mg/kg/injection, schedule: Q01DX005 (ip), vehicle: saline with Tween-80",91 % of control
CCOc1cc(/C=N/NC(=O)C(O)c2ccccc2)ccc1O (configuration not stated),T/C,[1],95 % of control
same,T/C,[2],103 % of control
same,T/C,[3],101 % of control
CCC(C)CC(C)N (configuration not stated),T/C,"endpoint: mean survival time, dose: 100.0 mg/kg/injection, schedule: Q01DX001 (ip), vehicle: saline",104 % of control
CON=C(/C=C\c1ccccc1)/C=C/c1ccccc1,T/C,"endpoint: mean survival time, dose: 100.0 mg/kg/injection, schedule: Q01DX001 (ip), vehicle: saline with Tween-80",102 % of control
same,T/C,[1],103 % of control
same,T/C,"endpoint: mean survival time, dose: 200.0 mg/kg/injection, schedule: Q01DX001 (ip), vehicle: saline with Tween-80",98 % of control
same,T/C,[2],101 % of control
same,T/C,"endpoint: mean survival time, dose: 400.0 mg/kg/injection, schedule: Q01DX001 (ip), vehicle: saline with Tween-80",93 % of control
same,T/C,[3],97 % of control
N#Cc1ccc(C(=O)CC(O)(C(F)(F)F)C(F)(F)F)cc1,T/C,[4],101 % of control
same,T/C,[5],101 % of control
same,T/C,[6],98 % of control
[Cl][Pt+2][Cl].[NH-]c1ccc(Cl)cc1[NH-],T/C,"endpoint: mean survival time, dose: 2.5 mg/kg/injection, schedule: Q01DX009 (ip), vehicle: saline with Tween-80",113 % of control
same,T/C,"endpoint: mean survival time, dose: 5.0 mg/kg/injection, schedule: Q01DX009 (ip), vehicle: saline with Tween-80",118 % of control
same,T/C,"endpoint: mean survival time, dose: 40.0 mg/kg/injection, schedule: Q01DX009 (ip), vehicle: saline with Tween-80",179 % of control
CC(C)NC1=C(NC(=O)NC(=O)c2ccccc2)C(=O)c2ccccc2C1=O,T/C,"endpoint: mean survival time, dose: 100.0 mg/kg/injection, schedule: Q01DX001 (ip), vehicle: other",100 % of control
same,T/C,"endpoint: mean survival time, dose: 200.0 mg/kg/injection, schedule: Q01DX001 (ip), vehicle: other",103 % of control
same,T/C,"endpoint: mean survival time, dose: 400.0 mg/kg/injection, schedule: Q01DX001 (ip), vehicle: other",106 % of control
CCO/C=N/NC(=O)CNC(=O)C=[N+]=[N-],T/C,[4],108 % of control
same,T/C,[5],103 % of control
same,T/C,[6],108 % of control
CCc1ccc(O[Si](C)(C)C)cc1,T/C,[4],97 % of control
same,T/C,[5],99 % of control
